Assay results published in US5716950A, “Diazacycloalkanealkylsulfonamide derivatives” (Nippon Shoji Kabushiki Kaisha, priority 1994, dated 1998).
Read-outs that look alike come from different tables or passages of the source.

What was measured:
[1] = system: extracted ileum (histamine contraction); test: Antihistaminic activity: suppression of histamine-induced contraction of extracted ileum; design: species or system Female Hartley guinea pig; conditions: histamine 3×10^-7 M; guinea pig ileum; 50% suppression of contraction; read-out: anti-His in extracted ileum EC50
Experimental: Female Hartley guinea pig (weighing 500 to 650 g) were sacrificed and the ileum (length of about 10 to 25 cm) was extracted from the ileocecum to prepare a specimen (length of 3 cm). […] After allowing to stand for 60 minutes to make the specimen stable, a histamine (3×10^-7 M) was applied to the specimen at single application. Contraction of the specimen was determined and recorded using isotonic transducer. After repeating application of a histamine to make the contraction constant, a diluted solution of the test compound was applied. Three minutes after the application, a histamine was then added and an activity of suppressing contraction was examined.

[2] = system: passive cutaneous anaphylaxis (PCA); test: Activity of suppressing passive cutaneous anaphylaxis (PCA); assay type: in vivo, Male Wistar rats; conditions: Rattus norvegicus, po, 1 h, 10 mg/kg-po, 1 hour before antigen challenge; read-out: % suppression of rat PCA
Experimental: Test compounds were examined on their antiallergic activities. […] After 48 hours, 1.0 ml of 0.5 % Evans Blue saline solution containing DNP.BSA (1 mg in protein) was injected through the tail vein to induce allergic reaction. After 30 minutes, the rats were sacrificed by bleeding and the skin of back where dye was leaked out was flayed and put it into 20 ml test tube with ground stopper. Thereto was added 1.0 ml of 1N KOH aqueous solution and then it was allowed to stand at 37° C. in incubator overnight for lysing. To this solution was added 8.3 ml of a mixture of acetone and 0.6N phosphoric acid (13:5) and the mixture was mixed well and then was filtered to remove the insoluble materials.
The test compounds were administered orally 1 hour before the antigen challenge. Suppression rate was expressed by percentage to the value in control where 0.5% aqueous methylcellulose solution was orally administered.

[3] = system: mouse biphasic allergic dermal reaction; test: Mouse Biphasic Allergic Dermal Reaction; assay type: in vivo, Female Balb/c mice; conditions: for inhibition in vivo at 0.1 mg/kg / inhibition in vivo at 1 mg/kg: Mus musculus, oral
Experimental: Female Balb/c mice (weighing 18 to 25 g) were subjected to passive sensitization by intravenous administration of 1 ml of anti-DNP monoclonal IgE antibody showing 1:1024 of antibody titer. 24 hours after the sensitization, 25 μl of 0.15% dinitrofluorobenzene (DNFB) were applied to both sides of right and left auricles of mouse for inducing allergic reactions. Thickness of auricles were measured using Dial Thickness Gauge before the challenge with DNFB, and 1 and 24 hours after the challenge. And then, increase in thickness of auricles at 1 hour after the challenge (edema caused by immediate allergic reaction) and that at 24 hours after the challenge (edema caused by late allergic reaction) were calculated against the thickness of auricles before the challenge with DNFB, respectively.
Suppression rate was expressed by relative ratio (%) to the value in control in which a solvent was administered.
Test compounds, diphenhydramine which is a existing classical antihistamic drug, amlexanox which is an antiallergic drug and dexamethasone which is a steroidal drug were administered orally (partly intraperitoneally) once before antigen challenge.
The above test was performed by using a mouse biphasic allergic dermal reaction model which was a new model [see, Sakurai T, Inagaki, N. and Nagai, H Life Sci., 54, PL291-295 (1994)]. In this model, the immediate allergic reaction was induced by mediator release from mast cell at 1 hour after the challenge, and the late allergic reaction with inflammatory cells such as eosinophil (edema after 24 hours) was induced after 24 hours from the challenge.

[4] = system: male ICR mice; test: Toxicity Test (mouse acute toxicity, minimum lethal dose); assay type: in vivo; conditions: po, observed for 24 hours, head prints (10 mg/kg-po)
From the text: The test compounds were orally administered to male ICR mice (weighing to 30 g) after fasting overnight. […] The results were expressed by minimum lethal dose. Toxicity of any compounds of the present invention were weaker than that of ketotifen which was a reference compound.

[5] = 1 h, read-out: immediate edema (1 hr) suppression (%)
[6] = 24 h, read-out: late edema (24 hr) suppression (%)

Structure (SMILES): O=S(=O)(CCCCCCN1CCN(C(c2ccccc2)c2ccc(Cl)cc2)CC1)NC1CCCCC1 (centres unmarked) [Example 143]
- EC50 [1]: 2.8 µM
- inhibition in vivo at 10 mg/kg [2]: 87.8%
- inhibition in vivo at 0.1 mg/kg [3, 5]: 24%
- inhibition in vivo at 1 mg/kg [3, 5]: 40%
- inhibition in vivo at 0.1 mg/kg [3, 6]: 4%
- inhibition in vivo at 1 mg/kg [3, 6]: 28%
- suppression of the late allergic reaction (in words) ([3]; edema after 24 hours): showed strong activity of suppressing the late allergic reaction
- mouse acute toxicity (lethal dose) [4]: > 500 mg/kg
